Data as given in patent US7056947B2, “Aza-peptide epoxides” (Georgia Tech Research Corp., priority 2002, dated 2006).

Assays:
caspase-3 = target: T1, caspase-3 (Homo sapiens, UniProt P42574); assay: Caspase-3 progress curve assay; type: biochemical; conditions: substrate Z-DEVD-AFC; NI = no inhibition
T1 construct: made in house; host or cells: E. coli
T1 sequence (P42574 29-175 limits assumed): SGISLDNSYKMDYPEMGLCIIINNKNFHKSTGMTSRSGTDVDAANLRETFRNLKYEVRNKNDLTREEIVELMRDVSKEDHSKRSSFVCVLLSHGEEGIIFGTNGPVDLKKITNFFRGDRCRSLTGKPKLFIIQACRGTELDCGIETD
T1 sequence (P42574 176-277 limits assumed): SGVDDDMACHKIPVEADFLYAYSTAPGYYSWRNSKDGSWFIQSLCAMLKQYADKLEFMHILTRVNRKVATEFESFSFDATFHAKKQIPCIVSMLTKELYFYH
Method: Caspase-3, -6, and -8. Caspase-3, -6 and -8 were expressed in E. coli and purified according to methods previously described by Stennicke and Salvesen. Assays using the fluorogenic substrate Z-DEVD-AFC (λex=400 nm, λem=505 nm) were carried out on a Molecular Devices fMax fluorescence microplate reader. Inhibition rates and equilibria were determined by the progress curve method. The standard 100 μL reaction was started by adding enzyme to a mixture of substrate (final concentration of Z-DEVD-AFC 100 μM) and various amounts of inhibitor in buffer (50 mM Hepes, 100 mM NaCl, 0.1% (w/v) CHAPS, sucrose 10% (w/v), and 10 mM DTT, at pH 7.4). The caspases were pre-activated for 10 min at 37° C. in the presence of 10 mM DTT.

caspase-1 = target: T2, caspase-1 (Homo sapiens, UniProt P29466, D381E); assay: Caspase-1 progress curve assay; type: biochemical; conditions: D381E variant, substrate Ac-YVAD-AMC, 30° C.
T2 construct: His tag (N); made in house; host or cells: E. coli
T2 sequence (P29466 120-297 limits assumed): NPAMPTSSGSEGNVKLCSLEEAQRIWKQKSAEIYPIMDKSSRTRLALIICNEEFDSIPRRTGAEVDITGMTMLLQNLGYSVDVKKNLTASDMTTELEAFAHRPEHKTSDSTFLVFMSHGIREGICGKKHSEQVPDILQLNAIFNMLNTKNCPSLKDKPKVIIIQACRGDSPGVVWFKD
T2 sequence (P29466 317-404 D381E limits assumed): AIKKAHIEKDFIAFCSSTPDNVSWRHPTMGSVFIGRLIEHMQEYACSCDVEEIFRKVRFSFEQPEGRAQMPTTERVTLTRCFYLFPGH
Excerpt: Caspase-1. The preparation of the autolytically stable caspase-1 variant used in these studies has been described previously. Briefly, the variant contains a mutation (D381E) which renders it resistant to autolytic inactivation, but has no detectable affect on enzyme activity as compared to the naturally occurring enzyme. The enzyme variant was expressed in E. coli, purified first by immobilized metal chromatography via the N-terminal N-His tag, treated with excess oxidized glutathione to stabilize the reactive thiolate, and then re-purified by size-exclusion chromatography.
Inhibition data was measured using the progress curve assay method. Serial dilutions of each compound were prepared using an initial 8-fold dilution of a DMSO stock into HGE (100 mM HEPES,20% glycerol v/v, 0.5 mM EDTA), followed by seven serial two-fold dilutions into HGE and 12.5% DMSO, thus maintaining constant DMSO through the dilution series. Ten μL of diluted stocks or of vehicle (HGE and 12.5% DMSO) were placed in triplicate onto a 96-well microtiter plate, allowing several compounds to be tested on each plate. The plate was covered to minimize evaporation, and the plate was pre-warmed to 30° C. for 20 minutes. Enzyme was diluted into 10.0 mL of assay buffer (HGE, 5 mM DTT, plus 15 μM Ac-YVAD-AMC, 2 nM approximate final enzyme concentration), and this activated reaction mixture was added to the plate at 90 μL/well. Progress of substrate hydrolysis was monitored for 900 s in a LabSystems (Needham, Mass.) Fluoroskan Ascent fluorescent plate-reader using 385 and 460 nm excitation and emission filters, respectively, and a photomultiplier gain setting of 10. Triplicate curves were averaged and fit by nonlinear regression to the equation for irreversible inactivation shown below.
[formula] where F0 was routinely fixed to zero, since fluorescence values were always adjusted to an origin of 0. The second order rate constant kon (M^−1s^−1) was obtained from the slopes by linear regression, and errors represent the standard deviation of the regression slope.

SMILES	k2 caspase-3 (caspase-3) [M⁻¹ s⁻¹]	k2 caspase-1 (caspase-1) [M⁻¹ s⁻¹]
CC(C)[C@H](NC(=O)CCc1ccccc1)C(=O)N[C@@H](C)C(=O)NN(CC(=O)O)C(=O)[C@H]1O[C@@H]1C(=O)NCC(O)c1ccccc1 (stereo partly drawn) [23i (S,S), (2S,3S)-2-(2-Hydroxy-2-phenylethylcarbamoyl)-3-(N^2-(3-phenylpropanoylvalylalanyl)-N^1-carboxymethylhydrazinocarbonyl)oxirane]	510 ± 100	12260 ± 19
CC(NC(=O)[C@H]1O[C@@H]1C(=O)N(CC(=O)O)NC(=O)[C@H](C)NC(=O)[C@@H](NC(=O)CCc1ccccc1)C(C)C)C(=O)NCc1ccccc1 (stereo partly drawn) [23j (S,S), (2S,3S)-2-(1-Benzylcarbamoylethylcarbamoyl)-3-(N^2-(3-phenylpropanoylvalylalanyl)-N^1-carboxymethylhydrazinocarbonyl)oxirane]	260 ± 25	13400
CC(C)CC(NC(=O)[C@H]1O[C@@H]1C(=O)N(CC(=O)O)NC(=O)[C@H](C)NC(=O)[C@@H](NC(=O)CCc1ccccc1)C(C)C)C(N)=O (stereo partly drawn) [23k, (2S,3S)-2-(3-Methyl-1-amido-butylcarbamoyl)-3-(N^2-(3-phenylpropanoylvalylalanyl)-N^1-carboxymethylhydrazinocarbonyl)oxirane]	420 ± 6	26090 ± 2562
CC(C)[C@H](NC(=O)CCc1ccccc1)C(=O)N[C@@H](C)C(=O)NN(CC(=O)O)C(=O)[C@H]1O[C@@H]1C(=O)NC(Cc1ccccc1)C(N)=O (stereo partly drawn) [23l (S,S), (2S,3S)-2-(1-Amido-phenethylcarbamoyl)-3-(N^2-(3-phenylpropanoylvalylalanyl)-N^1-carboxymethylhydrazinocarbonyl)oxirane]	625 ± 160	32740 ± 9937
CC(C)[C@H](NC(=O)CCc1ccccc1)C(=O)N[C@@H](C)C(=O)NN(CC(=O)O)C(=O)[C@H]1O[C@@H]1C(=O)NC(Cc1ccc(O)cc1)C(N)=O (stereo partly drawn) [23m, (2S,3S)-2-(2-Amido-phenyl(4-hydroxy)ethylcarbamoyl)-3-(N^2-(3-phenylpropanoylvalylalanyl)-N^1-carboxymethylhydrazinocarbonyl)oxirane]	87 ± 4	3245 ± 2330
CCOC(=O)[C@H]1O[C@@H]1C(=O)N(CC(=O)O)NC(=O)[C@@H](NC(=O)[C@H](CCC(=O)O)NC(=O)OCc1ccccc1)C(C)C [24c, (2S,3S)-3-(N^2-(N-Benzyloxycarbonylglutamylvalyl)-N^1-carboxymethylhydrazinocarbonyl)oxirane-2-carboxylic Acid Ethyl Ester]	50500 ± 2075	58500
CC(C)[C@H](NC(=O)[C@H](CCC(=O)O)NC(=O)OCc1ccccc1)C(=O)NN(CC(=O)O)C(=O)[C@H]1O[C@@H]1C(=O)NCCc1ccccc1 [24h, (2S,3S)-2-(2-Phenethylcarbamoyl)-3-(N^2-(N-benzyloxycarbonylglutamylvalyl)-N^1-carboxymethylhydrazinocarbonyl)oxirane]	27330 ± 5430	41070 ± 440
CCOC(=O)[C@@H]1O[C@H]1C(=O)N(CC(=O)O)NC(=O)[C@@H](NC(=O)[C@H](CCC(=O)O)NC(=O)[C@H](CC(=O)O)NC(=O)OCc1ccccc1)C(C)C [25c (R,R), (2R,3R)-3-(N^2-(N-Benzyloxycarbonylaspartylglutamylvalyl)-N^1-carboxymethylhydrazinocarbonyl)oxirane-2-carboxylic Acid Ethyl Ester]	464420 ± 186300	4320 ± 830
CCOC(=O)[C@H]1O[C@@H]1C(=O)N(CC(=O)O)NC(=O)[C@@H](NC(=O)[C@H](CCC(=O)O)NC(=O)[C@H](CC(=O)O)NC(=O)OCc1ccccc1)C(C)C [25c (S,S), (2S,3S)-3-(N^2-(N-Benzyloxycarbonylaspartylglutamylvalyl)-N^1-carboxymethylhydrazinocarbonyl)oxirane-2-carboxylic Acid Ethyl Ester]	1074440 ± 154710	11840 ± 1214
CC(C)[C@H](NC(=O)[C@H](CCC(=O)O)NC(=O)[C@H](CC(=O)O)NC(=O)OCc1ccccc1)C(=O)NN(CC(=O)O)C(=O)[C@H]1O[C@@H]1C(=O)OCc1ccccc1 [25d, (2S,3S)-3-(N^2-(N-Benzyloxycarbonylaspartylglutamylvalyl)-N^1-carboxymethylhydrazinocarbonyl)oxirane-2-carboxylic Acid Benzyl Ester]	1915200 ± 209200	54690 ± 15913
CC(C)[C@H](NC(=O)[C@H](CCC(=O)O)NC(=O)[C@H](CC(=O)O)NC(=O)OCc1ccccc1)C(=O)NN(CC(=O)O)C(=O)[C@H]1O[C@@H]1C(=O)NCc1ccccc1 [25g, (2S,3S)-2-(2-Benzylcarbamoyl)-3-(N^2-(N-benzyloxycarbonylaspartylglutamylvalyl)-N^1-carboxymethylhydrazinocarbonyl)oxirane]	1097820 ± 94860	25420 ± 4013
CC(C)[C@H](NC(=O)[C@H](CCC(=O)O)NC(=O)[C@H](CC(=O)O)NC(=O)OCc1ccccc1)C(=O)NN(CC(=O)O)C(=O)[C@H]1O[C@@H]1C(=O)N[C@@H](Cc1ccccc1)C(N)=O [25l, Cbz-Asp-Glu-Val-AAsp-(S,S)-EP-CO-Phe-NH2]	722180 ± 340860	9250 ± 2835
CC(C)C[C@H](NC(=O)OCc1ccccc1)C(=O)N[C@@H](CCC(=O)O)C(=O)N[C@H](C(=O)NN(CC(=O)O)C(=O)[C@H]1O[C@@H]1C(=O)OCc1ccccc1)[C@@H](C)O [26d, (2S,3S)-3-(N^2-(N-Benzyloxycarbonylleucylglutamylthreonyl)-N^1-carboxymethylhydrazinocarbonyl)oxirane-2-carboxylic Acid Benzyl Ester]	3520 ± 600	43500 ± 2150
CCOC(=O)[C@@H]1O[C@H]1C(=O)N(CC(=O)O)NC(=O)[C@@H](NC(=O)[C@H](CCC(=O)O)NC(=O)[C@@H](NC(=O)OCc1ccccc1)[C@@H](C)CC)[C@@H](C)O [27c (R,R), (2R,3R)-3-(N^2-(N-Benzyloxycarbonylisoleucylglutamylthreonyl)-N^1-carboxymethylhydrazinocarbonyl)oxirane-2-carboxylic Acid Ethyl Ester]	2630 ± 365	13260 ± 3684
CCOC(=O)[C@H]1O[C@@H]1C(=O)N(CC(=O)O)NC(=O)[C@@H](NC(=O)[C@H](CCC(=O)O)NC(=O)[C@@H](NC(=O)OCc1ccccc1)[C@@H](C)CC)[C@@H](C)O [27c (S,S), (2S,3S)-3-(N^2-(N-Benzyloxycarbonylisoleucylglutamylthreonyl)-N^1-carboxymethylhydrazinocarbonyl)oxirane-2-carboxylic Acid Ethyl Ester]	4080 ± 360	12372
CC[C@H](C)[C@H](NC(=O)OCc1ccccc1)C(=O)N[C@@H](CCC(=O)O)C(=O)N[C@H](C(=O)NN(CC(=O)O)C(=O)[C@@H]1O[C@H]1C(=O)OCc1ccccc1)[C@@H](C)O [27d (R,R), (2R,3R)-3-(N^2-(N-Benzyloxycarbonylisoleucylglutamylthreonyl)-N^1-carboxymethylhydrazinocarbonyl)oxirane-2-carboxylic Acid Benzyl Ester]	3115 ± 125	13000 ± 980
